From PubChem BioAssay AID1963827 (Molecular Pharmacology Branch, DTP, NCI, 2024)

Test system: 994946-033-R-J1-PDC complex spheroid viability
Experiment: Anticancer human tumor 994946-033-R-J1-PDC patient-derived melanoma cell line growth inhibition [POLQ]
Settings: for IC50: curve of first compound; for viability, T/C: stronger effect = lower value
Method in brief: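 Complex spheroid viability model combining PDC tumour cells with endothelial (HUVEC) and MSC stromal cells. Novobiocin, ART-558 or RP6685 were tested singly and in combination with standard and investigational anticancer drugs. Each was titrated in half-log steps from near clinical Cmax, or from 10 microM where Cmax was unknown.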

[1] = second compound 0.0316 µM, first compound 0.0316 µM
[2] = second compound 0.0316 µM, first compound 0.1 µM
[3] = second compound 0.0316 µM, first compound 0.316 µM
[4] = second compound 0.0316 µM, first compound 1 µM
[5] = second compound 0.0316 µM, first compound 3.16 µM
[6] = second compound 0.0316 µM, first compound 10 µM
[7] = second compound 0.1 µM, first compound 0.0316 µM
[8] = second compound 0.1 µM, first compound 0.1 µM
[9] = second compound 0.1 µM, first compound 0.316 µM
[10] = second compound 0.1 µM, first compound 1 µM
[11] = second compound 0.1 µM, first compound 3.16 µM
[12] = second compound 0.1 µM, first compound 10 µM
[13] = second compound 0.316 µM, first compound 0.0316 µM
[14] = second compound 0.316 µM, first compound 0.1 µM
[15] = second compound 0.316 µM, first compound 0.316 µM
[16] = second compound 0.316 µM, first compound 1 µM
[17] = second compound 0.316 µM, first compound 3.16 µM
[18] = second compound 0.316 µM, first compound 10 µM
[19] = second compound 1 µM, first compound 0.0316 µM
[20] = second compound 1 µM, first compound 0.1 µM
[21] = second compound 1 µM, first compound 0.316 µM
[22] = second compound 1 µM, first compound 1 µM
[23] = second compound 1 µM, first compound 3.16 µM
[24] = second compound 1 µM, first compound 10 µM
[25] = second compound 3.16 µM, first compound 0.0316 µM
[26] = second compound 3.16 µM, first compound 0.1 µM
[27] = second compound 3.16 µM, first compound 0.316 µM
[28] = second compound 3.16 µM, first compound 1 µM
[29] = second compound 3.16 µM, first compound 3.16 µM
[30] = second compound 3.16 µM, first compound 10 µM
[31] = second compound 10 µM, first compound 0.0316 µM
[32] = second compound 10 µM, first compound 0.1 µM
[33] = second compound 10 µM, first compound 0.316 µM
[34] = second compound 10 µM, first compound 1 µM
[35] = second compound 10 µM, first compound 3.16 µM
[36] = second compound 10 µM, first compound 10 µM
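Further: spheroids exposed to drugs for 7 days.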
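Wherever viability, T/C is given: 100% = DMSO vehicle treated spheroids.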

For `CC1COCCN1c1cc(C2(O)CC3CCC(C2)O3)c2cnn(-c3ccn[nH]3)c2n1` (stereo unspecified) + COC1C(OC(N)=O)C(O)C(Oc2ccc3c(O)c(NC(=O)c4ccc(O)c(CC=C(C)C)c4)c(=O)oc3c2C)OC1(C)C, the IC50 (second compound 0.0316 µM) was 36.6 nM, the IC50 (second compound 0.1 µM) was 50.5 nM and the IC50 (second compound 0.316 µM) was 34 nM. For the same compound, the IC50 (second compound 1 µM) was 68.1 nM, the IC50 (second compound 3.16 µM) was under 31.6 nM and the IC50 (second compound 10 µM) was 44.5 nM. It also gave a viability, T/C [1] of 52.4%, a viability, T/C [2] of 39.7% and a viability, T/C [3] of 17.2%. For the same compound, the viability, T/C [4] was 25.7%, the viability, T/C [5] was 12.7% and the viability, T/C [6] was 6.6%. The viability, T/C [7] was 61.9%, the viability, T/C [8] was 32.1% and the viability, T/C [9] was 19.1%. The viability, T/C [10] was 17.5%, the viability, T/C [11] was 11.9% and the viability, T/C [12] was 6.15%. It also gave a viability, T/C [13] of 52.1%, a viability, T/C [14] of 29.5% and a viability, T/C [15] of 19.2%. It also gave a viability, T/C [16] of 16.5%, a viability, T/C [17] of 14.3% and a viability, T/C [18] of 6.89%. It also gave a viability, T/C [19] of 79.2%, a viability, T/C [20] of 30.6% and a viability, T/C [21] of 25.5%. For the same compound, the viability, T/C [22] was 20.1%, the viability, T/C [23] was 14.2% and the viability, T/C [24] was 5.41%. It also gave a viability, T/C [25] of 46.6%, a viability, T/C [26] of 25.5% and a viability, T/C [27] of 23.7%. The viability, T/C [28] was 18.9%, the viability, T/C [29] was 8.1% and the viability, T/C [30] was 4.51%. For the same compound, the viability, T/C [31] was 56.8%, the viability, T/C [32] was 35.9% and the viability, T/C [33] was 27.6%. The viability, T/C [34] was 22.5%, the viability, T/C [35] was 15.3% and the viability, T/C [36] was 5.9%.
In the case of `O=C(Nc1ccc(O)c(NS(=O)(=O)c2ccc(F)cc2)c1)c1ccc(-c2ccccc2)cc1` + Cc1cccc(N(C)C(=O)C2C(O)CCN2c2nc(C)cc(C(F)(F)F)c2C#N)c1, the IC50 (second compound 0.0316 µM) is reported as 9360 nM, the IC50 (second compound 0.1 µM) is reported as over 10000 nM and the IC50 (second compound 0.316 µM) is reported as 6510 nM. For the same compound, the IC50 (second compound 1 µM) was 5590 nM, the IC50 (second compound 3.16 µM) was 5890 nM and the IC50 (second compound 10 µM) was 2980 nM. It also gave a viability, T/C [1] of 90.8%, a viability, T/C [2] of 98% and a viability, T/C [3] of 112%. The viability, T/C [4] was 126%, the viability, T/C [5] was 92.9% and the viability, T/C [6] was 47.3%. It also gave a viability, T/C [7] of 108%, a viability, T/C [8] of 87.9% and a viability, T/C [9] of 118%. The viability, T/C [10] was 65%, the viability, T/C [11] was 61.3% and the viability, T/C [12] was 39.4%. It also gave a viability, T/C [13] of 84.1%, a viability, T/C [14] of 109% and a viability, T/C [15] of 91.4%. For the same compound, the viability, T/C [16] was 121%, the viability, T/C [17] was 74.8% and the viability, T/C [18] was 35.2%. For the same compound, the viability, T/C [19] was 87.7%, the viability, T/C [20] was 95.4% and the viability, T/C [21] was 81.2%. The viability, T/C [22] was 105%, the viability, T/C [23] was 61.9% and the viability, T/C [24] was 37.9%. For the same compound, the viability, T/C [25] was 73.5%, the viability, T/C [26] was 59.4% and the viability, T/C [27] was 90.2%. For the same compound, the viability, T/C [28] was 73%, the viability, T/C [29] was 81.3% and the viability, T/C [30] was 28.3%. For the same compound, the viability, T/C [31] was 85.5%, the viability, T/C [32] was 81.3% and the viability, T/C [33] was 95.8%. It also gave a viability, T/C [34] of 81.3%, a viability, T/C [35] of 48.4% and a viability, T/C [36] of 26.8%.
In the case of `Cn1ncnc1[C@H]1c2n[nH]c(=O)c3cc(F)cc(c23)N[C@@H]1c1ccc(F)cc1` + COC1C(OC(N)=O)C(O)C(Oc2ccc3c(O)c(NC(=O)c4ccc(O)c(CC=C(C)C)c4)c(=O)oc3c2C)OC1(C)C, the IC50 (second compound 0.0316 µM) is reported as over 100 nM, the IC50 (second compound 0.1 µM) is reported as over 100 nM and the IC50 (second compound 0.316 µM) is reported as over 100 nM. For the same compound, the IC50 (second compound 1 µM) was over 100 nM, the IC50 (second compound 3.16 µM) was over 100 nM and the IC50 (second compound 10 µM) was over 100 nM. The viability, T/C (second compound 0.0316 µM, first compound 0.000316 µM) was 92.5%, the viability, T/C (second compound 0.0316 µM, first compound 0.001 µM) was 96.1% and the viability, T/C (second compound 0.0316 µM, first compound 0.00316 µM) was 123%. It also gave a viability, T/C (second compound 0.0316 µM, first compound 0.01 µM) of 93.6%, a viability, T/C [1] of 71.5% and a viability, T/C [2] of 63.2%. For the same compound, the viability, T/C (second compound 0.1 µM, first compound 0.000316 µM) was 97.7%, the viability, T/C (second compound 0.1 µM, first compound 0.001 µM) was 81.9% and the viability, T/C (second compound 0.1 µM, first compound 0.00316 µM) was 93.4%. The viability, T/C (second compound 0.1 µM, first compound 0.01 µM) was 94.6%, the viability, T/C [7] was 72.8% and the viability, T/C [8] was 55.6%. For the same compound, the viability, T/C (second compound 0.316 µM, first compound 0.000316 µM) was 93.7%, the viability, T/C (second compound 0.316 µM, first compound 0.001 µM) was 101% and the viability, T/C (second compound 0.316 µM, first compound 0.00316 µM) was 93.3%. For the same compound, the viability, T/C (second compound 0.316 µM, first compound 0.01 µM) was 76.6%, the viability, T/C [13] was 66.3% and the viability, T/C [14] was 77.7%. It also gave a viability, T/C (second compound 1 µM, first compound 0.000316 µM) of 91.4%, a viability, T/C (second compound 1 µM, first compound 0.001 µM) of 103% and a viability, T/C (second compound 1 µM, first compound 0.00316 µM) of 104%. It also gave a viability, T/C (second compound 1 µM, first compound 0.01 µM) of 106%, a viability, T/C [19] of 59.9% and a viability, T/C [20] of 66.4%. For the same compound, the viability, T/C (second compound 3.16 µM, first compound 0.000316 µM) was 106%, the viability, T/C (second compound 3.16 µM, first compound 0.001 µM) was 81.2% and the viability, T/C (second compound 3.16 µM, first compound 0.00316 µM) was 117%. The viability, T/C (second compound 3.16 µM, first compound 0.01 µM) was 82.3%, the viability, T/C [25] was 70.4% and the viability, T/C [26] was 65.2%. For the same compound, the viability, T/C (second compound 10 µM, first compound 0.000316 µM) was 89.5%, the viability, T/C (second compound 10 µM, first compound 0.001 µM) was 102% and the viability, T/C (second compound 10 µM, first compound 0.00316 µM) was 110%. The viability, T/C (second compound 10 µM, first compound 0.01 µM) was 79.5%, the viability, T/C [31] was 78.4% and the viability, T/C [32] was 71.8%.
